The values below come from ChEMBL document CHEMBL1158652, “Constituents of Helenium amarum. II. Isolation and Characterization of Heleniamarin and Other Constituents” (1979).

Structures are written as SMILES. In brackets after ≈: the same amount, converted by molar mass.

In this assay the test system is KB. As to the kind of experiment: Cytotoxicity against human KB cells. Particulars: read-out: ED50 (the source's name). The assay is classed as functional.
Regarding `C=C1C(=O)O[C@H]2C[C@@H](C)[C@@H]3C=CC(=O)[C@@]3(C)C[C@H]12` [AROMATICIN], the EC50 was determined as 2 µg/mL (≈ 8.12 µM). As for `COc1c(O)cc2oc(-c3ccc(O)cc3)cc(=O)c2c1O` [HISPIDULIN], the figure is 96 µg/mL (≈ 320 µM); as for `C=C1C(=O)O[C@H]2C[C@@H](C)[C@@H]3C=CC(=O)[C@@]3(C)[C@H](O)[C@H]12` [MEXICANIN I], 1.9 µg/mL (≈ 7.24 µM). As for `C[C@@H]1C[C@@H]2OC(=O)[C@]3(C)[C@H]2[C@@H](OC3(C)O)[C@]2(C)C(=O)C=C[C@@H]12` (some centres undefined) [TENULIN], the figure is 26 µg/mL (≈ 84.9 µM).
